One experiment deals with SW480 (G12V). The experiment in a line: In vitro cell proliferation inhibition test (CellTiter-Glo), SW480. Format: cell-based. Particulars: Homo sapiens, SW480 colon cell line, KRAS (p.G12V), 72 h co-incubation. The source says: Test Example 1: In Vitro Cell Proliferation Inhibition Test
Due to the diversity of RAS mutations and in order to evaluate the activity of compounds in different RAS mutation cell lines, we selected KRAS^WT, KRAS^G12C, KRAS^G12D, KRAS^G12V and BRAF mutation cell lines (see the table below) for in vitro activity evaluation and screening of compounds.
Protocol: CellTiter-Glo® Cell Luminescent Viability Assay (Promega)
According to the doubling time of different cell lines, different numbers of cells (1000-5000 cells/well) were seeded in 96-well plates containing 180 μl of corresponding culture medium and cultured overnight in a cell culture incubator at 37° C. with 5% CO2. On the second day, the test compound was pre-diluted 3-fold with culture medium, with the highest concentration being 100 μM, for a total of 10 concentration gradients; then 20 μl of culture medium containing different concentrations of the compound was added to the cells in the 96-well plate to ensure that the final concentration of the compound was up to 10 μM, with 10 concentration gradients of 3-fold dilution. After the cells and compounds were co-incubated for 72 h, the 96-well plate was removed from the incubator and equilibrated at room temperature for 30 min. Then, 25 μl of CellTiter-Glo® Reagent was added to each well and mixed thoroughly. The mixture was incubated at room temperature for 10 min, and then 100 μl of the sample was transferred to a white 96-well plate (OptiPlate™-96, PerkinElmer). The […] signal value was read using a multi-function microplate reader (SpectraMax® i3x, Molecular devices). The signal values were then standardized, and the curve was fitted using a four-parameter regression equation to calculate the half maximal inhibitory concentration (IC50) of the compound on the cell line.

The subject of another experiment is AsPC-1 (G12D). The experiment in a line: In vitro cell proliferation inhibition test (CellTiter-Glo), AsPC-1. Format: cell-based. Particulars: Homo sapiens, ASPC1, AsPC-1 pancreas cell line, KRAS (p.G12D), 72 h co-incubation. In outline:
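Cells were seeded at 1000-5000/well by doubling time and cultured overnight at 37 °C, 5% CO2. They were then exposed for 72 h to 10-point, 3-fold compound dilutions (final top 10 μM), and viability was read by CellTiter-Glo luminescence. IC50 came from normalized signals fitted by four-parameter regression.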
For orientation: ATP-based viability assays read luminescence as a measure of living cells.

Take `CCn1c(-c2cc(-c3nc(C)no3)cnc2[C@H](C)OC)c2c3cc(ccc31)-c1csc(n1)C[C@H](NC(=O)[C@H]1C[C@@H]1C)C(=O)N1CCC[C@H](N1)C(=O)OCC(C)(C)C2` (atropisomer, axis not shown) [Compound 21, (1S,2S)-N-((6^3S,4S,Z)-1^1-ethyl-1^2-(2-((S)-1-methoxyethyl)-5-(3-methyl-1,2,4-oxadiazol-5-yl)pyridin-3-yl)-10,10-dimethyl-5,7-dioxo-6^1,6^2,6^3,6^4,6^5,6^6-hexahydro-1^1H-8-oxa-2(4,2)-thiazola-1(5,3)-indola-6(1,3)-pyridazinacycloundecaphane-4-yl)-2-methylcyclopropane-1-carboxamide]: the IC50 with SW480 (G12V) is 15 nM; in the experiment with AsPC-1 (G12D), 11 nM.

For the molecule `CCn1c(-c2cc(-c3cc(CN4CCOCC4)on3)cnc2[C@H](C)OC)c2c3cc(ccc31)-c1csc(n1)C[C@H](NC(=O)[C@H]1C[C@@H]1C)C(=O)N1CCC[C@H](N1)C(=O)OCC(C)(C)C2` (atropisomer, axis not shown) [Compound 22, (1S,2S)-N-((6^3S,4S,Z)-1^1-ethyl-1^2-(2-((S)-1-methoxyethyl)-5-(5-(morpholinomethyl)isoxazol-3-yl)pyridin-3-yl)-10,10-dimethyl-5,7-dioxo-6^1,6^2,6^3,6^4,6^5,6^6-hexahydro-1^1H-8-oxa-2(4,2)-thiazola-1(5,3)-indola-6(1,3)-pyridazinacycloundecaphane-4-yl)-2-methylcyclopropane-1-carboxamide], the results for the IC50 in the experiment on SW480 (G12V) and with AsPC-1 (G12D) were 10 nM and 11 nM, respectively.

On to `CCn1c(-c2cc(-c3cc(CNC)on3)cnc2[C@H](C)OC)c2c3cc(ccc31)-c1csc(n1)C[C@H](NC(=O)[C@H]1C[C@@H]1C)C(=O)N1CCC[C@H](N1)C(=O)OCC(C)(C)C2` (atropisomer, axis not shown) [Compound 23, (1S,2S)-N-((6^3S,4S,Z)-1^1-ethyl-1^2-(2-((S)-1-methoxyethyl)-5-(5-((methylamino)methyl)isoxazol-3-yl)pyridin-3-yl)-10,10-dimethyl-5,7-dioxo-6^1,6^2,6^3,6^4,6^5,6^6-hexahydro-1^1H-8-oxa-2(4,2)-thiazola-1(5,3)-indola-6(1,3)-pyridazinacycloundecaphane-4-yl)-2-methylcyclopropane-1-carboxamide], for which the results for the IC50 in the experiment with SW480 (G12V) and in the experiment with AsPC-1 (G12D) were 117 nM and 42 nM, respectively.

For `CCn1c(-c2cc(-c3cc([C@H]4CCCN4C)on3)cnc2[C@H](C)OC)c2c3cc(ccc31)-c1csc(n1)C[C@H](NC(=O)[C@H]1C[C@@H]1C)C(=O)N1CCC[C@H](N1)C(=O)OCC(C)(C)C2` (atropisomer, axis not shown) [Compound 24, (1S,2S)-N-((6^3S,4S,Z)-1^1-ethyl-1^2-(2-((S)-1-methoxyethyl)-5-(5-((R)-1-methylpyrrolidin-2-yl)isoxazol-3-yl)pyridin-3-yl)-10,10-dimethyl-5,7-dioxo-6^1,6^2,6^3,6^4,6^5,6^6-hexahydro-1^1H-8-oxa-2(4,2)-thiazola-1(5,3)-indola-6(1,3)-pyridazinacycloundecaphane-4-yl)-2-methylcyclopropane-1-carboxamide], the IC50 was 19 nM with SW480 (G12V) and 26 nM in the experiment with AsPC-1 (G12D).

Turning to `CCn1c(-c2cc(-c3cc([C@@H]4CCCN4C)on3)cnc2[C@H](C)OC)c2c3cc(ccc31)-c1csc(n1)C[C@H](NC(=O)[C@H]1C[C@@H]1C)C(=O)N1CCC[C@H](N1)C(=O)OCC(C)(C)C2` (atropisomer, axis not shown) [Compound 25, (1S,2S)-N-((6^3S,4S,Z)-1^1-ethyl-1^2-(2-((S)-1-methoxyethyl)-5-(5-((S)-1-methylpyrrolidin-2-yl)isoxazol-3-yl)pyridin-3-yl)-10,10-dimethyl-5,7-dioxo-6^1,6^2,6^3,6^4,6^5,6^6-hexahydro-1^1H-8-oxa-2(4,2)-thiazola-1(5,3)-indola-6(1,3)-pyridazinacycloundecaphane-4-yl)-2-methylcyclopropane-1-carboxamide], the IC50 in the experiment with SW480 (G12V) was determined as 22 nM; with AsPC-1 (G12D) it was 20 nM.

For the molecule `CCn1c(-c2cc(-c3cc([C@H]4CN(C)CCO4)on3)cnc2[C@H](C)OC)c2c3cc(ccc31)-c1csc(n1)C[C@H](NC(=O)[C@H]1[C@H](C)[C@@H]1C)C(=O)N1CCC[C@H](N1)C(=O)OCC(C)(C)C2` (atropisomer, axis not shown) [Compound 26, (1r,2R,3S)-N-((6^3S,4S,Z)-1^1-ethyl-1^2-(2-((S)-1-methoxyethyl)-5-(5-((R)-4-methylmorpholin-2-yl)isoxazol-3-yl)pyridin-3-yl)-10,10-dimethyl-5,7-dioxo-6^1,6^2,6^3,6^4,6^5,6^6-hexahydro-1^1H-8-oxa-2(4,2)-thiazola-1(5,3)-indola-6(1,3)-pyridazinacycloundecaphane-4-yl)-2,3-dimethylcyclopropane-1-carboxamide], the results for the IC50 in the experiment on SW480 (G12V) and in the experiment on AsPC-1 (G12D) were 2.5 nM and 10 nM, respectively.

Regarding `CCn1c(-c2cc(-c3cc([C@@H]4CN(C)CCO4)on3)cnc2[C@H](C)OC)c2c3cc(ccc31)-c1csc(n1)C[C@H](NC(=O)[C@H]1[C@H](C)[C@@H]1C)C(=O)N1CCC[C@H](N1)C(=O)OCC(C)(C)C2` (atropisomer, axis not shown) [Compound 27, (1r,2R,3S)-N-((6^3S,4S,Z)-1^1-ethyl-1^2-(2-((S)-1-methoxyethyl)-5-(5-((S)-4-methylmorpholin-2-yl)isoxazol-3-yl)pyridin-3-yl)-10,10-dimethyl-5,7-dioxo-6^1,6^2,6^3,6^4,6^5,6^6-hexahydro-1^1H-8-oxa-2(4,2)-thiazola-1(5,3)-indola-6(1,3)-pyridazinacycloundecaphane-4-yl)-2,3-dimethylcyclopropane-1-carboxamide], the IC50 in the experiment on SW480 (G12V) was 1.8 nM; in the experiment with AsPC-1 (G12D) it was 1.1 nM.

Turning to `CCn1c(-c2cc(-c3cc([C@@H]4CCN(C)C4)on3)cnc2[C@H](C)OC)c2c3cc(ccc31)-c1csc(n1)C[C@H](NC(=O)[C@H]1[C@H](C)[C@@H]1C)C(=O)N1CCC[C@H](N1)C(=O)OCC(C)(C)C2` (atropisomer, axis not shown) [Compound 29, (1r,2R,3S)-N-((6^3S,4S,Z)-1^1-ethyl-1^2-(2-((S)-1-methoxyethyl)-5-(5-((R)-1-methylpyrrolidin-3-yl)isoxazol-3-yl)pyridin-3-yl)-10,10-dimethyl-5,7-dioxo-6^1,6^2,6^3,6^4,6^5,6^6-hexahydro-1^1H-8-oxa-2(4,2)-thiazola-1(5,3)-indola-6(1,3)-pyridazinacycloundecaphane-4-yl)-2,3-dimethylcyclopropane-1-carboxamide], the IC50 was found to be 10 nM in the experiment with SW480 (G12V) and 3.2 nM in the experiment on AsPC-1 (G12D).

Turning to `CCn1c(-c2cc(-c3cc(C4CCN(C)CC4)on3)cnc2[C@H](C)OC)c2c3cc(ccc31)-c1csc(n1)C[C@H](NC(=O)[C@H]1C[C@@H]1C)C(=O)N1CCC[C@H](N1)C(=O)OCC(C)(C)C2` (atropisomer, axis not shown) [Compound 30, (1S,2S)-N-((6^3S,4S,Z)-1^1-ethyl-1^2-(2-((S)-1-methoxyethyl)-5-(5-(1-methylpiperidin-4-yl)isoxazol-3-yl)pyridin-3-yl)-10,10-dimethyl-5,7-dioxo-6^1,6^2,6^3,6^4,6^5,6^6-hexahydro-1^1H-8-oxa-2(4,2)-thiazola-1(5,3)-indola-6(1,3)-pyridazinacycloundecaphane-4-yl)-2-methylcyclopropane-1-carboxamide], the IC50 was 0.44 nM in the experiment on SW480 (G12V) and 0.58 nM with AsPC-1 (G12D).

`CCn1c(-c2cc(-c3cc(C4CN(C)C4)on3)cnc2[C@H](C)OC)c2c3cc(ccc31)-c1csc(n1)C[C@H](NC(=O)[C@H]1C[C@@H]1C)C(=O)N1CCC[C@H](N1)C(=O)OCC(C)(C)C2` (atropisomer, axis not shown) [Compound 31, (1S,2S)-N-((6^3S,4S,Z)-1^1-ethyl-1^2-(2-((S)-1-methoxyethyl)-5-(5-(1-methylazetidin-3-yl)isoxazol-3-yl)pyridin-3-yl)-10,10-dimethyl-5,7-dioxo-6^1,6^2,6^3,6^4,6^5,6^6-hexahydro-1^1H-8-oxa-2(4,2)-thiazola-1(5,3)-indola-6(1,3)-pyridazinacycloundecaphane-4-yl)-2-methylcyclopropane-1-carboxamide]: the figures for the 50% inhibitory concentration (IC50) in the experiment on SW480 (G12V) and with AsPC-1 (G12D) were 2 nM and 1.6 nM, respectively.

As to `CCn1c(-c2cc(-c3cc([C@@H]4COCCN4C)on3)cnc2[C@H](C)OC)c2c3cc(ccc31)-c1csc(n1)C[C@H](NC(=O)[C@H]1[C@H](C)[C@@H]1C)C(=O)N1CCC[C@H](N1)C(=O)OCC(C)(C)C2` (atropisomer, axis not shown) [Compound 32, (1r,2R,3S)-N-((6^3S,4S,Z)-1^1-ethyl-1^2-(2-((S)-1-methoxyethyl)-5-(5-((S)-4-methylmorpholin-3-yl)isoxazol-3-yl)pyridin-3-yl)-10,10-dimethyl-5,7-dioxo-6^1,6^2,6^3,6^4,6^5,6^6-hexahydro-1^1H-8-oxa-2(4,2)-thiazola-1(5,3)-indola-6(1,3)-pyridazinacycloundecaphane-4-yl)-2,3-dimethylcyclopropane-1-carboxamide], the IC50 in the experiment with SW480 (G12V) came to 1.6 nM; in the experiment with AsPC-1 (G12D) it was 1.3 nM.

As a reminder, the IC50 is the point on the concentration scale where inhibition reaches its midpoint.

These data come from patent US20260193271A1, “PAN-KRAS INHIBITOR COMPOUND” (ADLAI NORTYE BIOPHARMA CO., LTD., priority 2022, published 2026).
